In patent publication US20090312316A1, “NOVEL COMPOUNDS” (priority 2006, published 2009):

Assays:
[1] = system: panel of 12 human tumour cell lines; assay: monolayer proliferation assay (modified propidium iodide assay) in a panel of 12 human tumour cell lines; format: cell-based; details: for Mean % T/C at 1 μM / Mean % T/C at 10 μM: mean growth across 12 cell-line panel, treated/control x 100, 4 days exposure; for Mean percentage Inhibition of cancer cell lines at 1 uM: 100 minus mean %T/C at 1 uM of Table III
Experimental: In vitro evaluation of compounds for anticancer activity in a panel of 12 human tumour cell lines in a monolayer proliferation assay was carried out at the Oncotest Testing Facility, Institute for Experimental Oncology, Oncotest GmbH, Freiburg.
The Oncotest cell lines were established from human tumor xenografts as described by Roth et al., (1999). The origin of the donor xenografts was described by Fiebig et al., (1999). Other cell lines were either obtained from the NCI (H460, SF-268, OVCAR-3, DU145, MDA-MB-231, MDA-MB-468) or purchased from DSMZ, Braunschweig, Germany (LNCAP).
All cell lines, unless otherwise specified, were grown at 37° C. in a humidified atmosphere (95% air, 5% CO2) in a ‘ready-mix’ medium containing RPMI 1640 medium, 10% fetal calf serum, and 0.1 mg/mL gentamicin (PAA, Cölbe, Germany).
A modified propidium iodide assay was used to assess the effects of the test compound(s) on the growth of human tumour cell lines (Dengler et al., (1995)).
Briefly, cells were harvested from exponential phase cultures by trypsinization, counted and plated in 96 well flat-bottomed microtitre plates at a cell density dependent on the cell line (5-10.000 viable cells/well). After 24 h recovery to allow the cells to resume exponential growth, 0.010 mL of culture medium (6 control wells per plate) or culture medium containing macbecin were added to the wells. Each concentration was plated in triplicate. Compounds were applied in two concentrations (0.001 mM and 0.01 mM). Following 4 days of continuous exposure, cell culture medium with or without test compound was replaced by 0.2 mL of an aqueous propidium iodide (PI) solution (7 mg/L). To measure the proportion of living cells, cells were permeabilized by freezing the plates. After thawing the plates, fluorescence was measured using the Cytofluor 4000 microplate reader (excitation 530 nm, emission 620 nm), giving a direct relationship to the total number of viable cells.
The mean growth inhibition across the 12 cell-line panel was expressed as treated/control×100 (% T/C).
In vitro evaluation of the test compounds for anticancer activity in a panel of human tumour cell lines in a monolayer proliferation assay was carried out as described in the general methods using a modified propidium iodide assay. This screen may be used as a model for the toxic effect of compounds in inhibiting general cell growth.

CAM vasculature = assay: Chick chorioallantoic membrane (CAM) assay of anti-angiogenic activity; format: in vivo; details: for Ratio of inhibition of CAM vasculature at 25 ng/CAM to in vitro cancer cell inhibition at 1 uM: 25 ng/CAM versus 1 uM in cancer cell panel; for Mean blood vessel density score: angiogenesis score up to 32 (highest density), 0 = no angiogenesis, mean of ten experiments; for anti-angiogenic therapeutic index (ratio of anti-angiogenesis to general cell inhibition), in words: as compared to 1 and 6
Experimental: Fresh fertile eggs were be incubated for 3 days in a standard egg incubator at 37° C. for 3 days. On Day 3, eggs were cracked under sterile conditions and embryos were placed into 20×100 mm plastic plates and cultivated at 37° C. in an embryo incubator with a water reservoir on the bottom shelf. Air was continuously bubbled into the water reservoir using a small pump so that the humidity in the incubator was kept constant. […] Embryos were returned to the incubator after addition of test material. Control embryos received 10 μL of vehicle alone. […] The blood vessel density was semi-quantitatively measured using an angiogenesis scoring system, in that exponential numbers 1 to 32 were used to indicate number of blood vessels present at the treatment sites on the CAM. Number 32 represented the highest density and 0 represented no angiogenesis. The percent of inhibition at each dosing site was calculated using the score recorded for that site divided by the mean score obtained from the appropriate control samples for each individual experiment. The percent of inhibition for each dose of a given compound was calculated by pooling all results obtained for that dose.

[2] = Cleavage studies in rat blood to give the parent acid 6; format: in vitro ADME; details: rat blood (EDTA), 0.01 mg/mL, 37° C.; for cleavage to give the parent compound 6: up to 180 minutes
Experimental: The sample was diluted to a volume of 1 mL by addition of 0.1 M aqueous KH2PO4. […] An Oasis MAX cartridge (1 cc/30 mg) was conditioned with 1 mL MeOH and 1 mL water successively. The supernatant was transferred to the conditioned cartridge at a flow rate of 1-2 mL/min. […] The extracts were transferred to autosampler vials and immediately analysed by LC/MS. […] LCMS was performed on a Bruker Daltonics Esquire 3000+ mass spectrometer equipped with an electrospray source coupled to the HPLC. […] Injection volume: 0.05 mL. HPLC was performed on a Waters Symmetry C8 3.5 micron column, 50 mm×2.1 mm, running a mobile phase of: mobile phase A: 0.1% formic acid in water; mobile phase B: 0.1% Formic acid in acetonitrile; flow rate: 1 mL/minute. […] Fragmentation of this molecular species results in a spectrum with intense ions at m/z 271 and 412. The daughter ion at m/z 412 can be ideally selected for quantification.

endothelial cells = details: with respect to borrelidin; WO 01/09113; cited from earlier work
[3] = system: mouse colon adenocarcinoma cells; details: subtoxic dose; cited from earlier work
[4] = system: Lewis lung adenocarcinoma; details: rats; intraperitoneal and per os administration at subtoxic doses; cited from earlier work

Compound	Mean % T/C at 1 μM [1]	Mean % T/C at 10 μM [1]	inhibition of cell growth at 1 μM (in words) [1]	further results
17-des(cyclopentane-2-carboxylic acid)-17-(cyclobutane-2-carboxylic acid)borrelidin (2-(2-hydroxyethyl)pyridine ester [Compound 8]	40 % T/C	6 % T/C		
17-des(cyclopentane-2-carboxylic acid)-17-(cyclobutane-2-carboxylic acid)borrelidin (4-(2-hydroxyethyl))morpholine ester [Compound 7]	36 % T/C	8 % T/C		Mean percentage inhibition of CAM vasculature at 25 ng/CAM (CAM vasculature): 54%; Ratio of inhibition of CAM vasculature at 25 ng/CAM to in vitro cancer cell inhibition at 1 uM (CAM vasculature): 0.84; Mean blood vessel density score (CAM vasculature): 7.8; anti-angiogenic therapeutic index (ratio of anti-angiogenesis to general cell inhibition), in words (CAM vasculature): improved; half-life for the cleavage to parent compound 6 [2]: ~12 min; cleavage to give the parent compound 6 [2]: rapidly cleaved; Mean percentage Inhibition of cancer cell lines at 1 uM [1]: 64%
C[C@@H]1C[C@H](C)C[C@H](C)[C@@H](O)CC(=O)O[C@@H](C2CC[C@H]2C(=O)O)C/C=C/C=C(/C#N)[C@H](O)[C@@H](C)C1 (stereo partly drawn) [Compound 6, 17-des(cyclopentane-2-carboxylic acid)-17-(cyclobutane-2-carboxylic acid)borrelidin]	33 % T/C	8 % T/C		Mean percentage inhibition of CAM vasculature at 25 ng/CAM (CAM vasculature): 51%; Ratio of inhibition of CAM vasculature at 25 ng/CAM to in vitro cancer cell inhibition at 1 uM (CAM vasculature): 0.76; Mean blood vessel density score (CAM vasculature): 8.2; inhibition at 1 µM ([1]; Homo sapiens, read-out: Mean percentage Inhibition of cancer cell lines at 1 uM): 67%
CC1CC(C)CC(C)C(O)C(C#N)=CC=CCC(C2CCC2C(=O)NCCN2CCOCC2)OC(=O)CC(O)C(C)C1 (stereo not drawn) [Compound 9, 17-des(cyclopentane-2-carboxylic acid)-17-(cyclobutane-2-carboxylic acid)borrelidin (4-(2-aminoethyl))morpholine amide]	101 % T/C	43 % T/C	little or no inhibition of cell growth	Mean percentage inhibition of CAM vasculature at 25 ng/CAM (CAM vasculature): 60%; Ratio of inhibition of CAM vasculature at 25 ng/CAM to in vitro cancer cell inhibition at 1 uM (CAM vasculature): >60; Mean blood vessel density score (CAM vasculature): 6.8; anti-angiogenic therapeutic index (ratio of anti-angiogenesis to general cell inhibition), in words (CAM vasculature): especially good; cleavage to give the parent compound 6 [2]: did not cleave; Mean percentage Inhibition of cancer cell lines at 1 uM [1]: 0%
CC1CC(C)CC(C)C(O)C(C#N)=CC=CCC(C2CCC2C(=O)NCc2ccncc2)OC(=O)CC(O)C(C)C1 (stereo not drawn) [Compound 10, 17-des(cyclopentane-2-carboxylic acid)-17-(cyclobutane-2-carboxylic acid)borrelidin (4-aminomethyl)pyridine amide]	104 % T/C	57 % T/C	little or no inhibition of cell growth	
CC1CC(C)CC(C)C(O)C(C#N)=CC=CCC(C2CCC2C(=O)NCc2cccnc2)OC(=O)CC(O)C(C)C1 (stereo not drawn) [Compound 11, 17-des(cyclopentane-2-carboxylic acid)-17-(cyclobutane-2-carboxylic acid)borrelidin (3-aminomethyl)pyridine amide]	97 % T/C	20 % T/C	little or no inhibition of cell growth	
CC1CC(C)CC(C)C(O)C(C#N)=CC=CCC(C2CCC2C(=O)NCc2ccccn2)OC(=O)CC(O)C(C)C1 (stereo not drawn) [Compound 12, 17-des(cyclopentane-2-carboxylic acid)-17-(cyclobutane-2-carboxylic acid)borrelidin (2-aminomethyl)pyridine amide]	87 % T/C	15 % T/C	little or no inhibition of cell growth	
CC1CC(C)CC(C)C(O)C(C#N)=CC=CCC(C2CCC2C(=O)NCCc2cccnc2)OC(=O)CC(O)C(C)C1 (stereo not drawn) [Compound 13, 17-des(cyclopentane-2-carboxylic acid)-17-(cyclobutane-2-carboxylic acid)borrelidin (3-(2-aminoethyl))pyridine amide]	97 % T/C	37 % T/C	little or no inhibition of cell growth	cleavage to give the parent compound 6 [2]: did not cleave
CC1CC(C)CC(C)C(O)C(C#N)=CC=CCC(C2CCC2C(N)=O)OC(=O)CC(O)C(C)C1 (stereo not drawn) [Compound 14, 17-des(cyclopentane-2-carboxylic acid)-17-(cyclobutane-2-carboxylic acid)borrelidin amide]	92 % T/C	26 % T/C	little or no inhibition of cell growth	
CC1CC(C)CC(C)C(O)C(C#N)=CC=CCC(C2CCCC2C(=O)OCCc2ccccn2)OC(=O)CC(O)C(C)C1 (stereo not drawn) [borrelidin-(2-pyridyl)-ethyl ester]				selectivity index for capillary formation inhibitory activity versus cell proliferation (endothelial cells): 7.5 fold
CC1CC(C)CC(C)C(O)CC(=O)OC(C2CCCC2C(=O)NCc2cccnc2)C(C#N)=CC=CCC(O)C(C)C1 (stereo not drawn) [borrelidin-(3-picolylamide) derivative, borrelidin-(3-picolylamide)]				metastasis-forming ability of mouse colon adenocarcinoma cells transplanted into mouse spleen [3]: considerably decreased; increase of micrometastases [4]: inhibit very considerably
C[C@@H]1C[C@H](C)C[C@H](C)[C@@H](O)CC(=O)O[C@H]([C@@H]2CCC[C@H]2C(=O)NCCN2CCOCC2)C/C=C/C=C(/C#N)[C@H](O)[C@@H](C)C1 [borrelidin-morpholinoethyl amide]				selectivity index for capillary formation inhibitory activity versus cell proliferation (endothelial cells): 6 fold
C[C@@H]1C[C@H](C)C[C@H](C)[C@@H](O)CC(=O)O[C@H]([C@@H]2CCC[C@H]2C(=O)OCCN2CCOCC2)C/C=C/C=C(/C#N)[C@H](O)[C@@H](C)C1 [borrelidin-morpholinoethyl ester]				selectivity index for capillary formation inhibitory activity versus cell proliferation (endothelial cells): 60 fold
borrelidin-amide				selectivity index for capillary formation inhibitory activity versus cell proliferation (endothelial cells): 37 fold
